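Where inhibition never reached the appropriate level, the endpoint shown equals the highest concentration tested. Otherwise, values were interpolated linearly from a five-concentration, 48-hour dose response in 96-well plates. TGI: total growth inhibition.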
Assays:
Test in all cases: NCI anticancer screen, dose series, 48 h
HCT-116 colon = test system: HCT-116 colon
SK-OV-3 ovarian = test system: SK-OV-3 ovarian
M14 melanoma = test system: M14 melanoma
DU-145 prostate = test system: DU-145 prostate
NCI-H23 lung = test system: NCI-H23 lung
A549 NSCLC = test system: A549 NSCLC
IGROV1 ovarian = test system: IGROV1 ovarian
COLO 205 colon = test system: COLO 205 colon
786-0 renal = test system: 786-0 renal
OVCAR-5 ovarian = test system: OVCAR-5 ovarian
OVCAR-3 ovarian = test system: OVCAR-3 ovarian
HCT-15 colon = test system: HCT-15 colon
OVCAR-8 ovarian = test system: OVCAR-8 ovarian
PC-3 prostate = test system: PC-3 prostate
HT29 colon = test system: HT29 colon
CAKI-1 renal = test system: CAKI-1 renal
SNB-75 CNS = test system: SNB-75 CNS
SF-295 CNS = test system: SF-295 CNS
SK-MEL-5 melanoma = test system: SK-MEL-5 melanoma
HS 578T breast = test system: HS 578T breast

SMILES	TGI (HCT-116 colon) [µM]	TGI (SK-OV-3 ovarian) [µM]	TGI (M14 melanoma) [µM]	TGI (DU-145 prostate) [µM]	TGI (NCI-H23 lung) [µM]	TGI (A549 NSCLC) [µM]	TGI (IGROV1 ovarian) [µM]	TGI (COLO 205 colon) [µM]	TGI (786-0 renal) [µM]	TGI (OVCAR-5 ovarian) [µM]	TGI (OVCAR-3 ovarian) [µM]	TGI (HCT-15 colon) [µM]	TGI (OVCAR-8 ovarian) [µM]	TGI (PC-3 prostate) [µM]	TGI (HT29 colon) [µM]	TGI (CAKI-1 renal) [µM]	TGI (SNB-75 CNS) [µM]	TGI (SF-295 CNS) [µM]	TGI (SK-MEL-5 melanoma) [µM]	TGI (HS 578T breast) [µM]
O=C(O)C1CCCCN1C(=O)Cc1c[nH]c2ccccc12 (stereo not given)	> 100	> 100	> 100	> 100	> 100	> 100	> 100	> 100	> 100	> 100	> 100	> 100	> 100	> 100	> 100	> 100	> 100	> 100		
N/C(=N\N=C\c1cc(I)cc(I)c1O)NO	76.2	> 100	44.2	> 100	79.3	> 100	> 100	> 100	> 100	> 100	14.6	> 100	> 100	> 100	> 100	> 100		> 100	> 100	> 100
COc1cc(COC(=O)N2CC=CC2C(=O)O)c([N+](=O)[O-])cc1OC (stereo not given)	> 100	> 100	> 100	> 100	> 100	> 100	> 100	> 100	> 100	> 100	> 100	> 100	> 100	> 100	> 100		> 100	> 100	> 100	> 100
Cc1cccc(/C=N\NC(=S)N2CCCCC2)n1	0.125	> 100	0.406	> 100	> 100	> 100	0.0702	0.22	20.8	> 100		> 100	0.582	> 100	> 100	3.62	9.32	6.58	0.187	> 100
COc1cc(C2SCC(=O)N2c2ccc(NC(C)=O)cc2)cc(OC)c1OC (stereo not given)	> 100	> 100	> 100	> 100	> 100	> 100	> 100	> 100	> 100	> 100	> 100	> 100	> 100	> 100	> 100	> 100		> 100	> 100	> 100
CCOC(=O)[C@@H]1ON2O[C@H](OC3CCCCC3c3ccccc3)C[C@H]3OC(=O)[C@@H]1C32 (stereo not given in full)	> 100	> 100	> 100	> 100	> 100	> 100	> 100	> 100	> 100	> 100	> 100	> 100	> 100		> 100	> 100	> 100	> 100	> 100	> 100
CCc1[nH]c(=O)c2oc3cc4ccccc4cc3c2c1C(=O)O	> 10		> 10	> 10		> 10	> 10		> 10	> 10	> 10	> 10	> 10	> 10	> 10		> 10	> 10		> 10
CCOC(=O)c1nc2ccccc2nc1Oc1ccc(C#N)cc1	> 100	> 100	> 100	> 100		> 100	> 100	> 100	> 100	> 100	> 100	> 100	> 100	> 100	> 100			> 100	> 100	> 100
CN=C(N)N=Nc1c(O)[nH]c2ccccc12	> 100	> 100	> 100	> 100	> 100	> 100	> 100	> 100	> 100	> 100		> 100	> 100	> 100	> 100	> 100	> 100	> 100	> 100	> 100
Oc1cnc2c(O)cccc2c1	> 100	> 100	> 100	> 100		> 100	> 100		> 100	> 100	65	> 100	80.5	> 100	> 100		79.9	> 100		> 100
O=C1NC(=S)NC(=O)C1=Cc1ccc(-c2ccccc2)cc1	> 100	> 100	> 100	> 100	> 100	> 100	> 100	> 100	> 100	> 100	> 100	> 100	> 100	> 100	> 100	> 100		> 100	> 100	> 100
CC(C)CC1c2[nH]c3ccccc3c2C[C@H]2C(=O)NC(CCCCNC(=O)OC(C)(C)C)C(=O)N12 (stereo not given in full)	> 100		> 100	> 100	> 100	> 100	> 100	72.2	50.7	> 100	16.6	> 100	> 100	65.5	64.6	> 100		40.9	> 100	25.6
O=C(Cn1c(=O)oc2ccc(C(=O)c3ccc(F)cc3)cc21)c1ccccc1	> 100	> 100	> 100	> 100	> 100	> 100	> 100	> 100	> 100	> 100		> 100	> 100	> 100	> 100	> 100	> 100		> 100	> 100

— PubChem BioAssay (NCI)
